In ChEMBL document CHEMBL4825753 (J Med Chem, 2021):

Experiments:
[1] = target: T1, Tyrosine-protein kinase Mer (Homo sapiens, UniProt Q12866); experiment: Inhibition of MER (unknown origin) by LC-MS analysis
T1 sequence (Q12866 whole entry): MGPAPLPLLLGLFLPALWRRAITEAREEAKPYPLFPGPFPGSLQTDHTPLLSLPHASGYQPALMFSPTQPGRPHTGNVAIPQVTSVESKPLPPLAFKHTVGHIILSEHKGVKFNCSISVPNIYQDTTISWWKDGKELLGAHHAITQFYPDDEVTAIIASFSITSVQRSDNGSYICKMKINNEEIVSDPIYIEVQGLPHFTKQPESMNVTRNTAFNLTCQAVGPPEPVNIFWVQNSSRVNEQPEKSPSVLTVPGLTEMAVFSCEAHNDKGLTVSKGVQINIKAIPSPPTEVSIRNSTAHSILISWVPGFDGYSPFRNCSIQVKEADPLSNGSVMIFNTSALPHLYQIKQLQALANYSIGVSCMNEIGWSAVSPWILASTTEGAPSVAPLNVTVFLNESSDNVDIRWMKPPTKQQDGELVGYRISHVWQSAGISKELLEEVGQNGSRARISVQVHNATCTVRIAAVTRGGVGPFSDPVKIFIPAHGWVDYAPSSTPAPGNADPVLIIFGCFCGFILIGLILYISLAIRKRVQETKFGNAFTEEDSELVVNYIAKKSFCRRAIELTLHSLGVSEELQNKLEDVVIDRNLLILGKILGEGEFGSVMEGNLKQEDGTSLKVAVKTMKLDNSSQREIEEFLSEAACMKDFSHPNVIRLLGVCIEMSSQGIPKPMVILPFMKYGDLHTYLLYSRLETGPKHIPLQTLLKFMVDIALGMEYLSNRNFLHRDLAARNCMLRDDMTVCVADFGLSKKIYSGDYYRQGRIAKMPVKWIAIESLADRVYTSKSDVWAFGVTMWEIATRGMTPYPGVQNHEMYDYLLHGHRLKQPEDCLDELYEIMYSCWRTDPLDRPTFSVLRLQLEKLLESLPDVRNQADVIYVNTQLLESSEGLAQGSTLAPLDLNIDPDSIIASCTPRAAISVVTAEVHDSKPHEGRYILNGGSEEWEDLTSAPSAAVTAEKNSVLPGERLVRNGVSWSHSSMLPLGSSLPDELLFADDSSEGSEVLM

[2] = target: T2, Tyrosine-protein kinase receptor UFO (Homo sapiens, UniProt P30530); experiment: Inhibition of AXL (unknown origin) by LC-MS analysis
T2 sequence (P30530 whole entry): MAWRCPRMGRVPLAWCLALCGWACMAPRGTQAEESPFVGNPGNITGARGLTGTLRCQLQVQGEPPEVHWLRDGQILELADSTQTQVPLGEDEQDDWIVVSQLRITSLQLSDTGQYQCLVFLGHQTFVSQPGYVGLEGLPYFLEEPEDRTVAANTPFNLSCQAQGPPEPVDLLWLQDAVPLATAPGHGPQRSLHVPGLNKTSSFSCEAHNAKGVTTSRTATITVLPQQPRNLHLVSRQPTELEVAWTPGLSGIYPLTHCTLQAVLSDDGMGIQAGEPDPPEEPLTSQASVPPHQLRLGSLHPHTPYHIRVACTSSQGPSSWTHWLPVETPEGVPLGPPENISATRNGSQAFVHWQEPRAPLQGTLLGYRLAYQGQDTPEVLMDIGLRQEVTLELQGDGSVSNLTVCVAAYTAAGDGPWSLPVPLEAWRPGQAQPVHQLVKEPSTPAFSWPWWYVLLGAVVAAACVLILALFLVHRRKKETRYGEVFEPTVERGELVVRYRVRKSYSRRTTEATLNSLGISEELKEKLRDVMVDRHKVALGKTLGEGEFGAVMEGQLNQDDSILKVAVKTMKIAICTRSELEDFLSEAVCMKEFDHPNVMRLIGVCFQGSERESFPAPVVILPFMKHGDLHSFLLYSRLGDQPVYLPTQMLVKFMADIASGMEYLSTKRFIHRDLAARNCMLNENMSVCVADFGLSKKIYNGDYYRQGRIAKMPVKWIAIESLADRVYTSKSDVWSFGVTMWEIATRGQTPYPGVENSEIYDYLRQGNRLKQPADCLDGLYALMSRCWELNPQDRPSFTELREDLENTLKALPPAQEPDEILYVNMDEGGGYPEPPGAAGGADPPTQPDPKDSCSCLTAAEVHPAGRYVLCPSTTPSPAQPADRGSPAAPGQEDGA

[3] = target: T3, Receptor-type tyrosine-protein kinase FLT3 (Homo sapiens, UniProt P36888); experiment: Inhibition of FLT3 (unknown origin) by LC-MS analysis
T3 sequence (P36888 whole entry): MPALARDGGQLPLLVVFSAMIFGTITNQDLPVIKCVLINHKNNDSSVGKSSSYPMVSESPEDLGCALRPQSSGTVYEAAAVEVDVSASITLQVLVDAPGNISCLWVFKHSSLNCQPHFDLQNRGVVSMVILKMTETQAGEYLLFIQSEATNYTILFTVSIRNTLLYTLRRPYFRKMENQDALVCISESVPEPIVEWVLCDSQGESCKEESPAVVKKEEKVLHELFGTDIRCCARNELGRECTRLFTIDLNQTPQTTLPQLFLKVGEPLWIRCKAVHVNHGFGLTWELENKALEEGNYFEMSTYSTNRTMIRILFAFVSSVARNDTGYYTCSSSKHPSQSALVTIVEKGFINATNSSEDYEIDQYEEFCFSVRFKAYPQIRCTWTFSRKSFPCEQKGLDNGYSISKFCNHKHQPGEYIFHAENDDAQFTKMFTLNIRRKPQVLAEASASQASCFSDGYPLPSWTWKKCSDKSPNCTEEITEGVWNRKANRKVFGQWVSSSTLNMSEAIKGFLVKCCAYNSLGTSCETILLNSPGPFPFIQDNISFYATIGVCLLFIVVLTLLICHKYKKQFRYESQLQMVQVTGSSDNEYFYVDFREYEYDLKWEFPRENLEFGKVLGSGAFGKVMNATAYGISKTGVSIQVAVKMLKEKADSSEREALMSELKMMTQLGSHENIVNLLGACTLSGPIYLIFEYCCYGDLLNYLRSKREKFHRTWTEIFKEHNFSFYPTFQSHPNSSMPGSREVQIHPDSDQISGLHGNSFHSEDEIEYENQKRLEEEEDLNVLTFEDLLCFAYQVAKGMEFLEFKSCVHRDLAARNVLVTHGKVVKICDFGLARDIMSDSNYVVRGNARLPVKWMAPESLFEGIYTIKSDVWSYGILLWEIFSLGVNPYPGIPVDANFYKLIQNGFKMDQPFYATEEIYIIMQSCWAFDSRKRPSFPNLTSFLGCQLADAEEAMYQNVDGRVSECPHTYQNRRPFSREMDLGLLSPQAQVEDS

[4] = target: T2, Tyrosine-protein kinase receptor UFO; experiment: Inhibition of FLAG-tagged AXL (unknown origin) transfected in Cos-7 cells assessed as phosphorylation level incubated for 1 hr by ELISA; type: cell-based
[5] = target: T3, Receptor-type tyrosine-protein kinase FLT3; experiment: Inhibition of FLAG-tagged FLT3 (unknown origin) transfected in Cos-7 cells assessed as phosphorylation level incubated for 1 hr by ELISA; type: cell-based
[6] = Lipophilicity, log D of the compound at pH 7.4; type: physicochemical; conditions: buffer

Row | Compound | IC50 [1] [µM] | IC50 [2] [µM] | IC50 [3] [µM] | IC50 [4] [µM] | IC50 [5] [µM] | logD [6]
1 | CN(Cc1ccc2nccn2c1)c1nnc(-c2ccc(-c3ccccc3Cl)cc2)o1 |  |  |  |  |  | 4.7
2 | Cc1cc(-c2c(C)nn(C(F)F)c2C)ccc1-c1nnc(N(C)Cc2ccc3nccn3c2)o1 | 0.501 | 63.1 | 100 | > 10 | > 31.6 | 4.1
3 | Cc1cc(-c2c(C#N)nn(C)c2C)ccc1-c1nnc(N(C)Cc2ccc3nccn3c2)o1 | 0.0316 | 6.31 | 25.1 | 6.31 |  | 3.4
4 | Cc1nn(C)c(C)c1-c1ccc(-c2nnc(N(C)Cc3ccc4nccn4c3)o2)cc1 | 0.0316 | 1.26 | > 63.1 | 3.16 |  | 3.1
5 | COc1ccccc1-c1ccc(-c2nnc(N(C)Cc3ccc4nccn4c3)o2)cc1 | 0.0316 | 1.58 | 50.1 |  |  | 4.1
6 | Cc1noc(C)c1-c1ccc(-c2nnc(N(C)Cc3ccc4nccn4c3)o2)cc1 | 0.2 | 31.6 | 39.8 |  |  | 3.1
7 | Cc1nn(C)c(C)c1-c1ccc(-c2nnc(N(C)Cc3ccc4nccn4c3)o2)c(C#N)c1 | 100 | > 100 | 79.4 | > 31.6 | > 31.6 | 2.9
8 | CN(Cc1ccc2nccn2c1)c1nnc(-c2ccc(-c3ccccc3)cc2)o1 | 0.0398 | 3.16 | 25.1 |  |  | 3.9
9 | Cc1cc(-c2c(C)nc(C)n2C)ccc1-c1nnc(N(C)Cc2ccc3nccn3c2)o1 | 0.0398 | 3.98 | 39.8 | 5.01 | > 50.1 | 2.6
10 | Cc1cc(-c2c(C)n[nH]c2C)ccc1-c1nnc(N(C)Cc2ccc3nccn3c2)o1 | 0.0398 | 5.01 | 39.8 | 15.8 | 7.94 | 3.8
11 | CN(Cc1ccc2nccn2c1)c1nnc(-c2ccc(C3CC3)cc2)o1 | 0.794 | 20 | 25.1 |  |  | 3.5
12 | Cc1nc(-c2c(C)nn(C)c2C)ccc1-c1nnc(N(C)Cc2ccc3nccn3c2)o1 | 0.0631 | 3.16 | > 100 | 10 | > 31.6 | 2.5
13 | Cc1ncccc1-c1ccc(-c2nnc(N(C)Cc3ccc4nccn4c3)o2)cc1 | 0.0501 | 6.31 | 20 |  |  | 3.1
14 | CN(Cc1ccc2nccn2c1)c1nnc(-c2ccccc2)o1 | 15.8 | > 100 | > 100 |  |  | 2.4

The remaining compounds from weak to strong by IC50 [1], led by results:

Row | IC50 [1] [µM] | IC50 [2] [µM] | IC50 [3] [µM] | IC50 [4] [µM] | IC50 [5] [µM] | logD [6] | Compound
15 | 0.0251 | 3.98 | 10 |  |  | 3.6 | CN(Cc1ccc2nccn2c1)c1nnc(-c2ccc(-c3ccccc3C#N)cc2)o1
16 | 0.0158 | 1.58 | 50.1 |  |  | 4.4 | CN(Cc1ccc2nccn2c1)c1nnc(-c2ccc(-c3ccccc3F)cc2)o1
17 | 0.0158 | 0.794 | 39.8 | 2 | > 31.6 | 2.9 | COc1cc(-c2c(C)nn(C)c2C)ccc1-c1nnc(N(C)Cc2ccc3nccn3c2)o1
18 | 0.0126 | 1.26 | > 100 | 3.16 | > 31.6 | 3.2 | Cc1nn(C)c(C)c1-c1ccc(-c2nnc(N(C)Cc3ccc4nccn4c3)o2)c(F)c1
19 | 0.0126 | 0.631 | 1 |  |  | 4.7 | Cc1ccccc1-c1ccc(-c2nnc(N(C)Cc3ccc4nccn4c3)o2)cc1
20 | 0.00251 | 0.0794 | 20 | 0.794 | > 31.6 | 3.3 | Cc1nn(C)c(C)c1-c1ccc(-c2nnc(N(C)Cc3ccc4nccn4c3)o2)c(Cl)c1
21 | 0.002 | 0.1 | 63.1 | 0.794 | > 31.6 | 3.4 | Cc1cc(-c2cnn(C)c2C)ccc1-c1nnc(N(C)Cc2ccc3nccn3c2)o1
22 | 0.00158 | 0.0398 | 15.8 | 0.398 | > 31.6 | 3.8 | Cc1cc(-c2c(C)nn(C)c2C#N)ccc1-c1nnc(N(C)Cc2ccc3nccn3c2)o1
